Data published in US9045482B2, “Pyrido[4,3-B]indoles and methods of use” (Medivation Technologies, Inc., priority 2009, dated 2015).

Key:
[1] = target: T1, human recombinant serotonin (5-Hydroxytryptamine) 5-HT6 receptor (Homo sapiens, UniProt P50406); experiment: Serotonin 5-HT6 radioligand binding ([3H]LSD)
T1 construct: expressed in transfected cells; host or cells: human HeLa cells
Method: (§1) Compounds of the invention were incubated with 1.5 nM [3H]Lysergic acid diethylamide (LSD) for 120 min at 37° C. […] Receptor proteins were filtered and washed, the filters were then counted to determine [3H]LSD specifically bound. Compounds were screened at 1 μM or lower, using 1% DMSO as vehicle. Biochemical assay results are presented as the percent inhibition of specific binding in Table 4.

[2] = target: T2, human recombinant serotonin (5-Hydroxytryptamine) 5-HT2C receptor (Homo sapiens, UniProt P28335); experiment: Serotonin 5-HT2C radioligand binding ([3H]Mesulergine)
T2 construct: expressed in transfected cells; host or cells: Chinese hamster ovary (CHO-K1) cells
T2 sequence (P28335 33-458): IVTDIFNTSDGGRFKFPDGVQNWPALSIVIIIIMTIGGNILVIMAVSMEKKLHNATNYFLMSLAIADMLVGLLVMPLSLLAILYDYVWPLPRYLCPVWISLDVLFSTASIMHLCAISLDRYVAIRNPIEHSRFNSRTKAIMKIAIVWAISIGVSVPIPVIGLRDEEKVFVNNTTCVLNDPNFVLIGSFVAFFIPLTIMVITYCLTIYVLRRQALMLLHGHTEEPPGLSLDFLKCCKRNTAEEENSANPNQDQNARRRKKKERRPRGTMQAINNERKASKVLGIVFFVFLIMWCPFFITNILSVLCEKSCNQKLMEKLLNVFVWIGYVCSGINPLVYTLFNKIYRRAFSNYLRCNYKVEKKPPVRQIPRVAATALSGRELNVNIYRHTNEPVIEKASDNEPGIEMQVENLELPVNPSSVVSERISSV
Method: (1997), 69:1449] in a modified Tris-HCl buffer (50 mM Tris-HCl, pH 7.4, 0.1% Ascorbic Acid, 10 μM Pargyline) was used. Compounds of the invention were incubated with 1 nM [^3H]Mesulergine for 60 min at 25° C. Non-specific binding was estimated in the presence of 1 μM Mianserin. Receptor proteins were filtered and washed, the filters were then counted to determine [^3H]Mesulergine specifically bound. Compounds were screened at 1 μM or lower, using 1% DMSO as vehicle. Biochemical assay results are presented as the percent inhibition of specific binding in Table 4.

[3] = target: T3, human recombinant serotonin (5-Hydroxytryptamine) 5-HT2A receptor (Homo sapiens, UniProt P28223); experiment: Serotonin 5-HT2A radioligand binding ([3H]Ketanserin)
T3 construct: expressed in transfected cells; host or cells: Chinese hamster ovary (CHO-K1) cells
T3 sequence (P28223 whole entry): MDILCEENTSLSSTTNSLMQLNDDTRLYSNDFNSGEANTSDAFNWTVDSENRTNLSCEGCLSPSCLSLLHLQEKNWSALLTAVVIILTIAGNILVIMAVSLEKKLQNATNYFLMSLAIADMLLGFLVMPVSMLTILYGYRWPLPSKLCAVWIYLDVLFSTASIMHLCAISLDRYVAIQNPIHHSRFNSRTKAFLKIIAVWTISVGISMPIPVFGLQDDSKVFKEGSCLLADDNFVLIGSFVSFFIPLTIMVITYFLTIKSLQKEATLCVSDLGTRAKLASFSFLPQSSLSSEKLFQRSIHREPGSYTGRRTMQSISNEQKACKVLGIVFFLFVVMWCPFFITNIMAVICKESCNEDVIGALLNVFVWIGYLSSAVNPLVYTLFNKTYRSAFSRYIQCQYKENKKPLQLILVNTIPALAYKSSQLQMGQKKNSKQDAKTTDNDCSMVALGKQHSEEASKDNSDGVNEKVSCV
Method: (1997), 68:1998] in a 50 mM Tris-HCl buffer, pH 7.4, was used. Compounds of the invention were incubated with 0.5 nM [^3H]Ketanserin for 60 min at 25° C. Non-specific binding was estimated in the presence of 1 μM Mianserin. Receptor proteins were filtered and washed, the filters were then counted to determine [^3H]Ketanserin specifically bound. Compounds were screened at 1 μM or lower, using 1% DMSO as vehicle. Biochemical assay results are presented as the percent inhibition of specific binding in Table 4.

[4] = target: human recombinant dopamine D2L receptor (Homo sapiens, UniProt P14416); experiment: Dopamine D2L radioligand binding ([3H]Spiperone)
human recombinant dopamine D2L receptor, sequence (P14416 whole entry): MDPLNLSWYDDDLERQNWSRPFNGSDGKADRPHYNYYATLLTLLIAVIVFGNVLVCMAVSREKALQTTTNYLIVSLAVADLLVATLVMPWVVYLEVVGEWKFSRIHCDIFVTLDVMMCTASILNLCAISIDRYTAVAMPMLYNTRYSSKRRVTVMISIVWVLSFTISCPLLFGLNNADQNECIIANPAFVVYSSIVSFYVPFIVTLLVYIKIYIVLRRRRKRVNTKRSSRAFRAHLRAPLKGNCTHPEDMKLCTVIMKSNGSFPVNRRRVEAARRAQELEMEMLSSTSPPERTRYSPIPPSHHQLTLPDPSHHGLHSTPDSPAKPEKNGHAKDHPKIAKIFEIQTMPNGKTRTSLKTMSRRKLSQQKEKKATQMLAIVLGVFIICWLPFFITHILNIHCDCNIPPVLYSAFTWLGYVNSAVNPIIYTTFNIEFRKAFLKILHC
Method: To evaluate in radioligand binding assays the activity of compounds of the invention, human recombinant dopamine D2L receptor expressed in Chinese hamster ovary (CHO) cells [Grandy, D. K. et al., Proc. Natl. Acad. Sci. USA. (1989), 86:9762; Hayes, G. et al., Mol. Endocrinol. […] Compounds of the invention were incubated with 0.16 nM [^3H]Spiperone for 120 min at 25° C. Non-specific binding was estimated in the presence of 10 μM Haloperidol. Receptor proteins were filtered and washed, the filters were then counted to determine [^3H]Spiperone specifically bound. Compounds were screened at 1 μM or lower, using 1% DMSO as vehicle. Biochemical assay results are presented as the percent inhibition of specific binding in Table 3.

[5] = target: human recombinant serotonin (5-Hydroxytryptamine) 5-HT7 receptor (Homo sapiens, UniProt P34969); experiment: Serotonin 5-HT7 radioligand binding ([3H]LSD)
human recombinant serotonin (5-Hydroxytryptamine) 5-HT7 receptor, sequence (P34969 whole entry): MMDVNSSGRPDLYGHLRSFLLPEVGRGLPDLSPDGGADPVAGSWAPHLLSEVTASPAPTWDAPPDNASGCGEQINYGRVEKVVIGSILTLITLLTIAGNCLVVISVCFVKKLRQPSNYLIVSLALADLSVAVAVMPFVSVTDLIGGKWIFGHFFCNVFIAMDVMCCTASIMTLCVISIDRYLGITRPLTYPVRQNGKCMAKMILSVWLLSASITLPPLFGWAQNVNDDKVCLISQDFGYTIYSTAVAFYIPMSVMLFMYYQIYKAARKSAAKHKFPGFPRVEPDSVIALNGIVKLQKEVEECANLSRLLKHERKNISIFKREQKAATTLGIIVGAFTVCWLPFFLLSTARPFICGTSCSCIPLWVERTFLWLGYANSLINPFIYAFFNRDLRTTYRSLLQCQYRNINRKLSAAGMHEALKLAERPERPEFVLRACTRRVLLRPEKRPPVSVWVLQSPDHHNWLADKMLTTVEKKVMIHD
Method: as §1, with “of” for “of the”, “5.5” for “1.5”, “[^3H]Lysergic” for “[3H]Lysergic”, “2 h” for “120 min”, “25°” for “37°”, “[^3H]LSD” for “[3H]LSD”

[6] = target: T4, human recombinant histamine H2 receptor (Homo sapiens, UniProt P25021); experiment: Histamine H2 radioligand binding (Aminopotentidine); conditions: read-out: Binding data (Percentage Inhibition) Histamine Binding H2
T4 construct: expressed in transfected cells; host or cells: Chinese hamster ovary (CHO) K1 cells
T4 sequence (P25021 whole entry): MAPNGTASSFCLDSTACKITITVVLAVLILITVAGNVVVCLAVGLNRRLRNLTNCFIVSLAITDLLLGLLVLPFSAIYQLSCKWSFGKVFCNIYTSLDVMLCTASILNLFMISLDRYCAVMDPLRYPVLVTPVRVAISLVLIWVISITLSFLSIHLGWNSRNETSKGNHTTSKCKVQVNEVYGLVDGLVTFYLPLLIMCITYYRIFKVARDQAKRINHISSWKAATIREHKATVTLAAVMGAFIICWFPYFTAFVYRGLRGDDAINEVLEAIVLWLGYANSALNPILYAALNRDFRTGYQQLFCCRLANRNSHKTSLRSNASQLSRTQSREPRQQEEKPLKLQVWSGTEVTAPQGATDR
Method: To evaluate in radioligand binding assays the activity of compounds of the invention, human recombinant histamine H2 receptor expressed in Chinese hamster ovary (CHO) K1 cells [Ruat, M., Proc. Natl. Acad. Sci. USA. (1990), 87(5):1658] in a 50 mM Phosphate buffer, pH 7.4 was used. Compounds of the invention were incubated with 0.1 nM […] for 120 min at 25° C. Non-specific binding was estimated in the presence of 3 μM Tiotidine. Receptor proteins were filtered and washed, the filters were then counted to determine […] specifically bound. Compounds were screened at 1 μM or lower, using 1% DMSO as vehicle. Biochemical assay results are presented as the percent inhibition of specific binding in Table 2.

[7] = target: human recombinant histamine H1 receptor (Homo sapiens, UniProt P35367); experiment: Histamine H1 radioligand binding ([3H]Pyrilamine); conditions: 1 μM; for inhibition at 1 µM: read-out: Binding data (Percentage Inhibition) Histamine Binding H1
human recombinant histamine H1 receptor, sequence (P35367 whole entry): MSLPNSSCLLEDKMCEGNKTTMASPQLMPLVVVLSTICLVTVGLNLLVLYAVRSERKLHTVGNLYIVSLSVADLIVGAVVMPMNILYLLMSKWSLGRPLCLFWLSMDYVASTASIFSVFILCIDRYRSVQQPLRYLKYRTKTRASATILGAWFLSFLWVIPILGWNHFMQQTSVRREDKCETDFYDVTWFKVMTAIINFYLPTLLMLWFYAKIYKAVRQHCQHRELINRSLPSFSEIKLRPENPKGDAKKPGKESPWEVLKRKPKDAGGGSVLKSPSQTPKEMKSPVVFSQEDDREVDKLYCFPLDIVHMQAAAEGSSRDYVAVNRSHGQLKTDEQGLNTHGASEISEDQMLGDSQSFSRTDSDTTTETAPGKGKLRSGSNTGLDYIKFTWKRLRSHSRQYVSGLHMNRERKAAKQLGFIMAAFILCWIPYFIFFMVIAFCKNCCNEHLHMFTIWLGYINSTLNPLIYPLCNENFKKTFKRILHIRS
Method: To evaluate in radioligand binding assays the activity of compounds of the invention, human recombinant histamine H1 receptor expressed in Chinese hamster ovary (CHO) cells [De Backer, M. et al., Biochem. Biophys. Res. Comm. (1993), 197(3):1601] in a modified Tris-HCl buffer (50 mM Tris-HCl, pH 7.4, 2 mM MgCl2, 100 mM NaCl, 250 mM Sucrose) was used. Compounds of the invention were incubated with 1.2 nM [^3H]Pyrilamine for 180 min at 25° C. Non-specific binding was estimated in the presence of 1 μM pyrilamine. Receptor proteins were filtered and washed, the filters were then counted to determine [^3H]Pyrilamine specifically bound. Compounds were screened at 1 μM or lower, using 1% DMSO as vehicle. Biochemical assay results are presented as the percent inhibition of specific binding in Table 2.

[8] = target: T5, human recombinant adrenergic α2B receptor (Homo sapiens, UniProt P18089); experiment: Adrenergic α2B radioligand binding ([3H]Rauwolscine); conditions: 0.1 μM ligand conc.
T5 construct: expressed in transfected cells; host or cells: Chinese hamster ovary (CHO-K1) cells
T5 sequence (P18089 1-450): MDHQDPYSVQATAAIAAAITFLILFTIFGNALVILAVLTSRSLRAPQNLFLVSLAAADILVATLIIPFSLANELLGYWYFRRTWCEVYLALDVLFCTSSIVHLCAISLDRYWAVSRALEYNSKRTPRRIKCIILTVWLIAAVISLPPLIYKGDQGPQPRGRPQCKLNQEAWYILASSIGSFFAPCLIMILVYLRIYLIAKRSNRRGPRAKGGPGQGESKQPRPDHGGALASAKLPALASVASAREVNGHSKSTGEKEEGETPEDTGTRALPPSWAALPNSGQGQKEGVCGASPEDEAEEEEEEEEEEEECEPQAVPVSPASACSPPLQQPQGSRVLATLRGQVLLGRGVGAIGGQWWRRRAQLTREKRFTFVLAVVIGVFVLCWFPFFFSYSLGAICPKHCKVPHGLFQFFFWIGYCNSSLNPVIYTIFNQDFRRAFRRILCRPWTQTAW
Method: To evaluate in radioligand binding assays the activity of compounds of the invention, human recombinant adrenergic α2B receptor expressed in Chinese hamster ovary (CHO-K1) cells [Uhlen, S. et al., Eur. J. Pharmacol. (1998), 343(1):93] in a modified Tris-HCl buffer (50 mM Tris-HCl, pH 7.4, 12.5 mM MgCl2, 1 mM EDTA, 0.2% BSA) was used. Compounds of the invention were incubated with 2.5 nM [^3H]Rauwolscine for 60 min at 25° C. Non-specific binding was estimated in the presence of 10 μM Prozosin. Receptor proteins were filtered and washed, the filters were then counted to determine [^3H]Rauwolscine specifically bound. Compounds were screened at 1 μM or lower, using 1% DMSO as vehicle. Compounds of the invention were tested in this biochemical assay. Biochemical assay results for representative compounds were presented as the percent inhibition of specific binding in Table 3.

T1 sequence (P50406 whole entry): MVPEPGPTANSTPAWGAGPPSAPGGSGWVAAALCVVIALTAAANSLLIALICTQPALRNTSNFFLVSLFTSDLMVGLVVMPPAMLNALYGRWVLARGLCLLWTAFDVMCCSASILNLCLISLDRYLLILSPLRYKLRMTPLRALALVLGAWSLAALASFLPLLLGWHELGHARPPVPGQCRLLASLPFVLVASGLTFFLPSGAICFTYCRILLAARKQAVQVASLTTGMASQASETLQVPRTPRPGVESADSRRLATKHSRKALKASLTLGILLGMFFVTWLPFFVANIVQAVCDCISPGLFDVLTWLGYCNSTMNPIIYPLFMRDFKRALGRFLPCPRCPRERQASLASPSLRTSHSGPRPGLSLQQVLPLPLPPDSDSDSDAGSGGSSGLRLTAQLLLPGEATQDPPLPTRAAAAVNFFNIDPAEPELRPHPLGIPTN

Row | SMILES | Percent Inhibition of ligand binding Serotonin 5-HT6 ([1]; 1 μM ligand concentration) [%] | Percent Inhibition of ligand binding Serotonin 5-HT2C ([2]; 1 μM ligand concentration) [%] | Percent Inhibition of ligand binding Serotonin 5-HT2A ([3]; 1 μM ligand concentration) [%] | Percent Inhibition of ligand binding Dopamine D2L ([4]; 1 μM ligand conc.) [%] | Percent Inhibition of ligand binding Serotonin 5-HT7 ([5]; 1 μM ligand concentration) [%] | inhibition at 1 µM [6] [%] | inhibition at 1 µM [7] [%] | Percent Inhibition of ligand binding Serotonin 5-HT6 ([1]; 0.1 μM ligand concentration) [%] | Percent Inhibition of ligand binding Serotonin 5-HT2A ([3]; 0.1 μM ligand concentration) [%] | Percent Inhibition of ligand binding Serotonin 5-HT7 ([5]; 0.1 μM ligand concentration) [%] | Percent Inhibition of ligand binding Adrenergic α2B [8] [%] | Percent Inhibition of ligand binding Serotonin 5-HT2C ([2]; 0.1 μM ligand concentration) [%] | Percent Inhibition of ligand binding Dopamine D2L ([4]; 0.1 μM ligand conc.) [%] | Binding data (Percentage Inhibition) Histamine Binding H1 [7] [%]
1 | CC(=Cn1c2c(c3cc(C)ccc31)CN1CCCC1C2)c1ccc(F)cc1 (stereo in doubt) [Compound 3, (E)-10-(2-(4-fluorophenyl)prop-1-enyl)-7-methyl-2,3,5,10,11,11a-hexahydro-1H-indolizino [7,6-b]indole] | 101 | 99 | 90 | 11 | 94 | 97 | 88 |  |  |  |  |  |  | 
2 | Cc1cnc2c(c1)c1c(n2CC(=O)N2CCCCC2)CC2CCCN2C1 (centres unmarked) [Compound 42, 2-(3-methyl-8,9,9a,10-tetrahydro-5H-pyrido[3′,2′:4,5]pyrrolo[3,2-f]indolizin-11(7H)-yl)-1-(piperidin-1-yl)ethanone] |  |  |  |  |  |  |  | 2 | 1 | −1 | 3 |  |  | 
3 | CC(=Cn1c2c(c3cc(C)ccc31)C1CCCN1CC2)c1ccc(F)cc1 (stereo in doubt) [Compound 4, (E)-7-(2-(4-fluorophenyl)prop-1-enyl)-10-methyl-2,3,5,6,7,11c-hexahydro-1H-indolizino[7,8-b]indole] | 103 | 99 | 99 | 90 | 101 | 75 | 41 | 100 | 87 |  |  | 88 | 59 | 53
4 | CC(=Cn1c2c(c3cc(C)ccc31)CN1CCCCC1C2)c1ccc(F)cc1 (stereo in doubt) [Compound 5, (E)-5-(2-(4-fluorophenyl)prop-1-enyl)-2-methyl-5,6,6a,7,8,9,10,12-octahydroindolo[2,3-b]quinolizine] | 96 | 92 | 98 | 28 | 97 | 97 | 76 |  |  |  |  |  |  | 
5 | CC(=Cn1c2c(c3cc(C)ccc31)C1CCCCN1CC2)c1ccc(F)cc1 (stereo in doubt) [Compound 6, (E)-8-(2-(4-fluorophenyl)prop-1-enyl)-11-methyl-1,2,3,4,6,7,8,12c-octahydroindolo[3,2-a]quinolizine] | 105 | 94 | 99 | 94 | 92 | 67 | 28 |  |  |  |  |  |  | 
6 | Cc1cnc2c(c1)c1c(n2CC(=O)N2CCCCC2)CCN2CCCC12 (centres unmarked) [Compound 41, 2-(10-methyl-2,3,5,6-tetrahydro-1H-pyrido[3′,2′:4,5]pyrrolo[2,3-g]indolizin-7(11cH)-yl)-1-(piperidin-1-yl)ethanone] |  |  |  |  |  |  |  | 8 | −2 | −5 | 14 |  |  | 
